# Experimental data published in US5968910A, “Compositions containing two or three inhibitors of different HIV reverse transcriptases” (priority 1994, dated 1999).
# Read-outs that look alike come from different tables or passages of the source.
# How the values were obtained:
# [1] = tested on: HIV-1/V(0.1) 101-Ile + 141-Glu; assay: Sensitivity of mutant HIV-1 strain in CEM cell cultures; format: cell-based; settings: Human immunodeficiency virus 1, CCRF-CEM; Table 5; read-out: EC50
# In short: (§1)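 Syncytium formation read out after 4 days at 37° C. Cultures: CEM cells, 250,000/ml, infected at 100 50% cell culture infective doses/ml and added to compound dilutions.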
# [2] = tested on: HIV-1/TIBO R82913 (103-Asn); assay: as above; format: cell-based; settings: Human immunodeficiency virus 1, CCRF-CEM; CEM cells, Table 1; read-out: 50% Effective Concentration
# In short: as §1
# HIV-1/II(0.1) 100-Ile = assay: as above; format: cell-based; settings: Human immunodeficiency virus 1, CCRF-CEM; Table 5; read-out: EC50
# In short: as §1
# HIV-1/Nev (106-Ala) = assay: as above; format: cell-based; settings: Human immunodeficiency virus 1, CCRF-CEM; CEM cells, Table 1; read-out: 50% Effective Concentration
# In short: as §1
# HIV-1/V(0.5) 103-Asn = assay: as above; format: cell-based; settings: Human immunodeficiency virus 1, CCRF-CEM; Table 5; read-out: EC50
# In short: as §1
# HIV-1/III(0.1) 103-Asn = assay: as above; format: cell-based; settings: Human immunodeficiency virus 1, CCRF-CEM; Table 5; read-out: EC50
# In short: as §1
# [3] = tested on: HIV-1/TSAO-m^3 T (138-Lys); assay: as above; format: cell-based; settings: Human immunodeficiency virus 1, CCRF-CEM; CEM cells, Table 1; read-out: 50% Effective Concentration
# In short: as §1
# HIV-1/Pyr (181-Cys) = assay: as above; format: cell-based; settings: Human immunodeficiency virus 1, CCRF-CEM; CEM cells, Table 1; read-out: 50% Effective Concentration
# In short: as §1
# HIV-1/I(0.1) 103-Asn = assay: as above; format: cell-based; settings: Human immunodeficiency virus 1, CCRF-CEM; Table 5; read-out: EC50
# In short: as §1
# [4] = tested on: HIV-1/TIBO R82150 (100-Ile); assay: as above; format: cell-based; settings: Human immunodeficiency virus 1, CCRF-CEM; CEM cells, Table 1; read-out: 50% Effective Concentration
# In short: as §1
# HIV-1(IIIB) (WT) = assay: microbe, parasite or virus in culture; format: cell-based; settings: Human immunodeficiency virus 1, IIIB, CCRF-CEM
# In short: as §1
# HIV-1(IIIB) = assay: Knock-out concentrations: breakthrough of HIV-1(IIIB)-induced cytopathicity in CEM cell cultures; format: cell-based; settings: for activity at 0.1 µg/mL / activity at 0.5 µg/mL / activity at 2.5 µg/mL: Human immunodeficiency virus 1, IIIB, CCRF-CEM, read-out: HIV-1-induced cytopathicity in cell culture; for activity at 0.1 µg/mL: 0.1 μg/ml; for activity at 0.5 µg/mL: 0.5 μg/ml; for activity at 2.5 µg/mL: 2.5 μg/ml
# Method: The culture medium consisted of RPMI 1640 containing 10% fetal bovine serum, 2 mM L-glutamine, and 0.075% NaHCO3. The multiplicity of the initial infection was ~1000 times the CCID50 (50% cell culture infective dose). Passages were performed every 3 to 4 days by adding 0.5 to 1.0 ml of the infected culture supernatant to 5 ml of a suspension containing 4×10^5 uninfected CEM cells per ml. Syncytium formation was used as a parameter of virus breakthrough in the cell cultures. In the drug combination experiments, the compounds were combined at the same initial concentrations as used for the two lowest concentrations in the single-drug experiments.
# The drug concentrations were kept constant throughout the whole time period of the experiment (10 subcultivations or 35 days). Then the drugs were removed from the cell cultures, and the cells were further subcultured for at least 5 additional passages.
# HIV-1 RT (WT) = HIV-1 RT (WT) (Human immunodeficiency virus type 1 group M subtype B, UniProt P03366); assay: biochemical
# Method: The reaction mixture (50 μl) contained 50 mM Tris.HCl, pH 7.8, 5 mM dithiothreitol, […] glutathione, 500 μM EDTA, 150 mM KCl, 5 mM MgCl2, 1.25 μg of bovine serum albumin, a fixed concentration of the labeled substrate [2,8-^3 H]dGTP (2.95 μM, 2 μCi), a fixed concentration of the template/primer poly(C).oligo(dG) (0.1 mM), 0.06% Triton X-100, 5 μl of inhibitor solution [containing various concentrations (5-fold dilutions) of the test compounds], and 5 μl of the RT preparation. The reaction mixtures were incubated at 37° C. for 30 min, at which time 100 μl of calf thymus DNA (150 μg/ml), 2 ml of Na4 P2 07 (0.1 M in 1M HCl), and 2 ml of trichloroacetic acid (10%, v/v) were added. The solutions were kept on ice for 30 min, after which the acid-insoluble material was washed and analyzed for radioactivity.
# Compounds I, III, IV and V were evaluated for their inhibitory effect on recombinant HIV-1 RT.
# [5] = 936 h, day 39 post infection, compound absent from day 35
# [6] = 1008 h, day 42 post infection, compound absent from day 35
# [7] = 1104 h, day 46 post infection, compound absent from day 35
# [8] = 1176 h, day 49 post infection, compound absent from day 35
# [9] = 1272 h, day 53 post infection, compound absent from day 35
compound,measurement,setting,value
O=C(OC1CCCCC1)c1cc(NC(=S)c2ccsc2)ccc1Cl [Compound V],EC50,[1],0.3 µg/mL
same,EC50,[2],> 1 µg/mL
same,EC50,HIV-1/II(0.1) 100-Ile,≥ 5 µg/mL
same,EC50,HIV-1/Nev (106-Ala),0.073 µg/mL
same,EC50,HIV-1/V(0.5) 103-Asn,≥ 5 µg/mL
same,EC50,HIV-1/III(0.1) 103-Asn,0.35 µg/mL
same,EC50,[3],0.075 µg/mL
same,EC50,HIV-1/Pyr (181-Cys),0.077 µg/mL
same,EC50,HIV-1/I(0.1) 103-Asn,1.75 µg/mL
same,EC50,[4],0.85 µg/mL
same,EC50,"HIV-1(IIIB) (WT); CEM cells, Table 1, read-out: 50% Effective Concentration",0.03 µg/mL
same,EC50,"HIV-1(IIIB) (WT); HIV-1 (III8), Table 5, read-out: EC50",0.03 µg/mL
same,IC50,"HIV-1(IIIB) (WT); range stated for Compounds I-V together, read-out: 50% inhibitory concentration, HIV-1(IIIB) replication in CEM cells",0.004 to 0.05 µg/mL
same,"prevention of virus breakthrough, fold more efficient than BHAP",HIV-1(IIIB),at least 5 fold
same,"prevention of virus breakthrough, fold more efficient than nevirapine",HIV-1(IIIB),≥ 25 fold
same,activity at 0.1 µg/mL,"HIV-1(IIIB); 96 h, day 4 post infection",0%
same,activity at 0.5 µg/mL,"HIV-1(IIIB); 96 h, day 4 post infection",0%
same,activity at 2.5 µg/mL,"HIV-1(IIIB); 96 h, day 4 post infection",0%
same,activity at 0.1 µg/mL,"HIV-1(IIIB); 192 h, day 8 post infection",37.5%
same,activity at 0.5 µg/mL,"HIV-1(IIIB); 192 h, day 8 post infection",0%
same,activity at 2.5 µg/mL,"HIV-1(IIIB); 192 h, day 8 post infection",0%
same,activity at 0.1 µg/mL,"HIV-1(IIIB); 264 h, day 11 post infection",50%
same,activity at 0.5 µg/mL,"HIV-1(IIIB); 264 h, day 11 post infection",0%
same,activity at 2.5 µg/mL,"HIV-1(IIIB); 264 h, day 11 post infection",0%
same,activity at 0.1 µg/mL,"HIV-1(IIIB); 336 h, day 14 post infection",100%
same,activity at 0.5 µg/mL,"HIV-1(IIIB); 336 h, day 14 post infection",18.5%
same,activity at 2.5 µg/mL,"HIV-1(IIIB); 336 h, day 14 post infection",0%
same,activity at 0.1 µg/mL,"HIV-1(IIIB); 408 h, day 17 post infection",100%
same,activity at 0.5 µg/mL,"HIV-1(IIIB); 408 h, day 17 post infection",75%
same,activity at 2.5 µg/mL,"HIV-1(IIIB); 408 h, day 17 post infection",0%
same,activity at 0.1 µg/mL,"HIV-1(IIIB); 504 h, day 21 post infection",100%
same,activity at 0.5 µg/mL,"HIV-1(IIIB); 504 h, day 21 post infection",100%
same,activity at 2.5 µg/mL,"HIV-1(IIIB); 504 h, day 21 post infection",0%
same,activity at 0.1 µg/mL,"HIV-1(IIIB); 600 h, day 25 post infection",100%
same,activity at 0.5 µg/mL,"HIV-1(IIIB); 600 h, day 25 post infection",100%
same,activity at 2.5 µg/mL,"HIV-1(IIIB); 600 h, day 25 post infection",0%
same,activity at 0.1 µg/mL,"HIV-1(IIIB); 672 h, day 28 post infection",100%
same,activity at 0.5 µg/mL,"HIV-1(IIIB); 672 h, day 28 post infection",100%
same,activity at 2.5 µg/mL,"HIV-1(IIIB); 672 h, day 28 post infection",0%
same,activity at 0.1 µg/mL,"HIV-1(IIIB); 768 h, day 32 post infection",100%
same,activity at 0.5 µg/mL,"HIV-1(IIIB); 768 h, day 32 post infection",100%
same,activity at 2.5 µg/mL,"HIV-1(IIIB); 768 h, day 32 post infection",0%
same,activity at 0.1 µg/mL,"HIV-1(IIIB); 840 h, day 35 post infection",100%
same,activity at 0.5 µg/mL,"HIV-1(IIIB); 840 h, day 35 post infection",100%
same,activity at 2.5 µg/mL,"HIV-1(IIIB); 840 h, day 35 post infection",0%
same,activity at 0.1 µg/mL,HIV-1(IIIB); [5],100%
same,activity at 0.5 µg/mL,HIV-1(IIIB); [5],100%
same,activity at 2.5 µg/mL,HIV-1(IIIB); [5],0%
same,activity at 0.1 µg/mL,HIV-1(IIIB); [6],100%
same,activity at 0.5 µg/mL,HIV-1(IIIB); [6],100%
same,activity at 2.5 µg/mL,HIV-1(IIIB); [6],0%
same,activity at 0.1 µg/mL,HIV-1(IIIB); [7],100%
same,activity at 0.5 µg/mL,HIV-1(IIIB); [7],100%
same,activity at 2.5 µg/mL,HIV-1(IIIB); [7],0%
same,activity at 0.1 µg/mL,HIV-1(IIIB); [8],100%
same,activity at 0.5 µg/mL,HIV-1(IIIB); [8],100%
same,activity at 2.5 µg/mL,HIV-1(IIIB); [8],0%
same,activity at 0.1 µg/mL,HIV-1(IIIB); [9],100%
same,activity at 0.5 µg/mL,HIV-1(IIIB); [9],100%
same,activity at 2.5 µg/mL,HIV-1(IIIB); [9],0%
same,concentration at which virus emerged (virus breakthrough),"HIV-1(IIIB); tested at 0.1, 0.5 and 2.5 μg/ml, 35 days",0.5 µg/mL
same,IC50,"HIV-1 RT (WT); range stated for the compounds together, poly(C).oligo(dG), 2.95 μM [2,8-3H]dGTP, read-out: IC50 on recombinant HIV-1 RT",47.4 to 203 nM
same,IC50,"HIV-1 RT (WT); substrate [2,8-3H]dGTP 2.95 μM, template poly(rC)oligo(dG), read-out: IC50, anti-HIV-1 RT (WT) activity (converted)",203 nM
